Test results published in US20250057819A1, “DRUG COMBINATIONS FOR INHIBITING CORONAVIRUS REPLICATION” (priority 2021, published 2025).
Where a name gives a salt, the structure may show the parent alone. Read-outs that look alike come from different tables or passages of the source.

How the values were obtained:
Experiment in all cases: microbe, parasite or virus in culture
Format in all cases: cell-based
SARS-CoV-2 = conditions: read-out: SARS-CoV-2 (Vido) EC50
SARS-CoV-2 (Alpha) = conditions: Huh7.5 cells, monotherapy
SARS-CoV-2 (Beta) = conditions: Huh7.5 cells, monotherapy
[1] = Severe acute respiratory syndrome coronavirus 2, Huh7.5
[2] = Severe acute respiratory syndrome coronavirus 2

Structure (SMILES)	EC50 (SARS-CoV-2)	EC50 (SARS-CoV-2 (Alpha))	EC50 (SARS-CoV-2 (Beta))	EC50 (SARS-CoV-2; [1])	EC50 (SARS-CoV-2 (Alpha); [2])	EC50 (SARS-CoV-2 (Beta); [2])
CC(C)C(=O)OC[C@H]1O[C@@H](n2cc/c(=N\O)[nH]c2=O)[C@H](O)[C@@H]1O [Molnupinavir]	90 nM	60 nM	110 nM			
Cc1c(O)cccc1C(=O)N[C@@H](CSc1ccccc1)[C@H](O)CN1C[C@H]2CCCC[C@H]2C[C@H]1C(=O)NC(C)(C)C [Nelfinavir mesylate]				1800 nM	500 nM	110 nM
CCN(CC)CCOc1ccc2c(c1)C(=O)c1cc(OCCN(CC)CC)ccc1-2 [Tilorone dihydrochloride]				930 nM	250 nM	190 nM
